The target of the series is T1, T1R2/T1R3 receptor (Homo sapiens, UniProt Q7RTX0+Q8TE23).
T1 sequence (Q8TE23 20-839): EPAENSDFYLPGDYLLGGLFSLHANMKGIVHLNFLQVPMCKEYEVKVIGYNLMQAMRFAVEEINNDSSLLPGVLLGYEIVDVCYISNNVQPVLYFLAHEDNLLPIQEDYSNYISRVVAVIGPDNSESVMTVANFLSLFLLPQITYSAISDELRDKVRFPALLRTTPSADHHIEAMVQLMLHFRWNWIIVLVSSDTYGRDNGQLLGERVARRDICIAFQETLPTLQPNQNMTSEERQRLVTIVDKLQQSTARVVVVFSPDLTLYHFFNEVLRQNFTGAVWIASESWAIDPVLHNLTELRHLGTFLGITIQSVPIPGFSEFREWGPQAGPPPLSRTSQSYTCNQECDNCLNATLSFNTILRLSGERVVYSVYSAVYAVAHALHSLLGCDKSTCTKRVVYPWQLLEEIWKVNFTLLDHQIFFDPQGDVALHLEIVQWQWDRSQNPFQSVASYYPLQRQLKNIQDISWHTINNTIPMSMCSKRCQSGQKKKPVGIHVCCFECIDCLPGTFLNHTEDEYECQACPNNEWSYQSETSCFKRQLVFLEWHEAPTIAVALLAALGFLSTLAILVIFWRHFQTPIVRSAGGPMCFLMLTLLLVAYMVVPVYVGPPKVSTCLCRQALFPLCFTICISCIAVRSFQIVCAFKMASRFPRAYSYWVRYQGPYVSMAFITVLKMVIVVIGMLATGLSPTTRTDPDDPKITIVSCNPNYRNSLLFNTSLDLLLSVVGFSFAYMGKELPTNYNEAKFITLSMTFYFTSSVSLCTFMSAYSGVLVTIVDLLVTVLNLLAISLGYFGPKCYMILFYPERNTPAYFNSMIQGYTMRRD
T1 sequence (Q7RTX0 21-852): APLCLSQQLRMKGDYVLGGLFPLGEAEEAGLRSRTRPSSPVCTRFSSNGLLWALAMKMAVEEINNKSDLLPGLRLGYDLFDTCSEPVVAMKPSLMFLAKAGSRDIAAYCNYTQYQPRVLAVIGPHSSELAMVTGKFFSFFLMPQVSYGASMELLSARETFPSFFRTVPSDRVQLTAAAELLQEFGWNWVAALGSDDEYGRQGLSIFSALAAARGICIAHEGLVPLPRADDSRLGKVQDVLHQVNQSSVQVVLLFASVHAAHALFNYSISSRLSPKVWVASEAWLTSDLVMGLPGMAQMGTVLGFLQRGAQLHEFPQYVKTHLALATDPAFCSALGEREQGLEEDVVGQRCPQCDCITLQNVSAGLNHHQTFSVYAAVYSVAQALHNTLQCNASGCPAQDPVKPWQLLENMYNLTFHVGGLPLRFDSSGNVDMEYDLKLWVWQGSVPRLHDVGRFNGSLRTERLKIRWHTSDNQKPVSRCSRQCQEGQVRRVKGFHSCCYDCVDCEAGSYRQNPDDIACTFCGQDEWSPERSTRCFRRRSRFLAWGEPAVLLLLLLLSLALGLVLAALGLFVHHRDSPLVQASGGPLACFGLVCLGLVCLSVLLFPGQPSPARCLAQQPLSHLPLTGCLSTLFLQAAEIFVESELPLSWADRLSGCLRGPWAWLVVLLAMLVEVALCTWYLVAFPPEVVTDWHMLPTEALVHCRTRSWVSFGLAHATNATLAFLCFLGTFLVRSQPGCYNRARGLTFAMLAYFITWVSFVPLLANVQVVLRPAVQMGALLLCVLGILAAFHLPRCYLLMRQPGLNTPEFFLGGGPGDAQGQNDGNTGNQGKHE
Conditions: for sensitivity of the assay to initiate receptor internalisation: comparison among the sweet compounds tested; for increase of chemiluminescence signal / internalisation response with concentration: shape of dose-response curve, Fig. 6A and 6B.

Setting [1] is: Clone #1057 cells, % (w/v), Fig. 6.
The mark [2] stands for this setting: Clone #1057 cells, 3 h at 20°C, n=3, Fig. 6.

We go through 7 compounds from EP3270157B1, “SCREENING ASSAY FOR SWEETNESS” (Firmenich SA, priority 2016, dated 2018).

SMILES strings stand for the structures. Read-outs that look alike come from different tables or passages of the source.

Excerpt: Binding of beta-arrestin will then stimulate receptor internalisation to the endosome, bringing the EA (enzyme part fused to beta-arrestin) and ProLink (enzyme part fused to the endosome) enzyme parts of beta-gal in close proximity to each other, enabling the formation of a functional beta-gal enzyme. The level of functional beta-Gal formed is a measure for ligand-induced receptor internalisation activity and is quantified by lysing cells using the PathHunter™ substrate mix, allowing the conversion of substrate to chemiluminescence.
PathHunter™HEK293 Active Internalisation Parental cells (HEK-293 cells natively expressing the sweet taste receptor and comprising the enzyme complementation system) were maintained in high glucose Dulbecco's modified Eagle's medium (4.5 g/l D-glucose, L-glutamine, HEPES) supplemented with 10% fetal bovine serum (DMEM-HG) at 37°C, 5% CO2 and 90% humidity.
For the beta-arrestin mediated internalization assay cells were grown and maintained in DMEM-HG. […] After 18 h of glucose starvation, cells were seeded in DMEM-LG at a density of 2.5×10^4 cells per well in a clear Poly-D-Lysine coated 96-well plate (CellCoat; Greiner Bio-One GmbH, Frickenhausen, Germany) and incubated for 24 h. Next, the PathHunter™ Detection assay kit was used for receptor stimulation according to the manufacturer's instructions. […] After 3 h of incubation at 20°C, the stimulant was removed and PathHunter™ substrate was added in 100 µl CP10 Cell Plating Reagents. Luminescence was measured using an Infinite F200 (Tecan Group Ltd., Männedorf, Switzerland). Analysis was performed in triplicates (n=3). Data are presented as the mean luminescence change (ΔF) over the base-line level (F): ΔF/F = (F(stimulant)−F(negativecontrol))/F(negativecontrol).

With `CC1=CC(=O)NS(=O)(=O)O1` [acesulfame-K], the “concentration at which the maximum response (ΔF/Fmax) was reached” value (“concentration … (ΔF/Fmax) was reached” for short) is 5.5%.

Regarding `O=C(CO)[C@@H](O)[C@H](O)[C@H](O)CO` [fructose], the “increase of chemiluminescence signal / internalisation response with concentration” value is given as “rather slow increase”. Further, the “concentration … (ΔF/Fmax) was reached” value under setting [1] was 9%. The “sensitivity of the assay to initiate receptor internalisation” value (shortened to “sensitivity of the assay”) (Fig. 6) is “highest sensitivity”. Further, the “maximum level of chemiluminescence (ΔF/Fmax)” value (“maximum level … (ΔF/Fmax)” below) (human, hek293 cells, 3 h) is recorded as 5.2.

On to `OC[C@@H](O)[C@@H](O[C@H]1O[C@H](CO)[C@@H](O)[C@H](O)[C@H]1O)[C@H](O)[C@@H](O)CO` [maltitol], for which the “maximum level … (ΔF/Fmax)” value under setting [2] is recorded as “nearly equal”. Further, the “concentration … (ΔF/Fmax) was reached” value under setting [1] is 17.0%.

Turning to `OC[C@H]1O[C@H](O[C@H]2[C@H](O)[C@@H](O)[C@H](O)O[C@@H]2CO)[C@H](O)[C@@H](O)[C@@H]1O` [maltose], the “increase of chemiluminescence signal / internalisation response with concentration” value is on record as “steep increase”. For the same compound, under setting [1], the “concentration … (ΔF/Fmax) was reached” value was determined as 16.5%. Further, the “sensitivity of the assay” value (Fig. 6) was “lowest sensitivity of the natural sugars tested”.

Regarding `OC[C@@H](O)[C@@H](O)[C@H](O)[C@H](O)CO` [mannitol], under setting [2], the “maximum level … (ΔF/Fmax)” value is listed as “nearly equal”. In addition, the “concentration … (ΔF/Fmax) was reached” value under setting [1] amounted to 7.7%.

`OC[C@H]1O[C@H](O[C@]2(CCl)O[C@H](CCl)[C@@H](O)[C@@H]2O)[C@H](O)[C@@H](O)[C@H]1Cl` [sucralose]: under setting [1], the “concentration … (ΔF/Fmax) was reached” value amounted to 15%. Further, the “concentration at which receptor internalisation responses were initiated” value (Clone #1057 cells, Fig. 6) is listed as “already observed at the lowest concentration tested”. In addition, under “Fig. 6”, the “sensitivity of the assay” value was “high sensitivity”.

For the compound `OC[C@H]1O[C@@](CO)(O[C@H]2O[C@H](CO)[C@@H](O)[C@H](O)[C@H]2O)[C@@H](O)[C@@H]1O` [sucrose], the “increase of chemiluminescence signal / internalisation response with concentration” value is given as “rather slow increase”.
